ChEMBL document CHEMBL1201862, “PubChem BioAssay data set” (2004)
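Five compound concentrations were applied to cells in 96-well plates for 48 hours; endpoints were derived by simple linear interpolation of the resulting dose-response curve. GI50 is the concentration that inhibits growth by half.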 Activity calls are given as the source filed them. Cut-off read from the data, not from the text of the source: active = GI50 up to about 1.1 µM and inactive = higher.

Experiments:
Assay in all cases: NCI-60 cell line screen, 48 h
[1] = test system: SNB-75
[2] = test system: NCI-H460
[3] = test system: EKVX
[4] = test system: SK-MEL-28
[5] = test system: RPMI-8226
[6] = test system: SN12C
[7] = test system: NCI-H23
[8] = test system: HT-29
[9] = test system: OVCAR-8
[10] = test system: SR
[11] = test system: SNB-19
[12] = test system: HCC 2998
[13] = test system: UO-31
[14] = test system: OVCAR-3
[15] = test system: M14
[16] = test system: NCI-H226
[17] = test system: OVCAR-5

Measured: GI50

COc1ccccc1-c1cc(O)c2cc3c(cc2n1)OCO3
inactive: [1] 22.1 µM | [2] 30.3 µM | [3] > 100 µM | [4] > 100 µM | [5] 38.5 µM | [6] 45.2 µM | [7] 54.6 µM | [8] 28.4 µM | [9] 28.3 µM | [10] 29.3 µM | [11] 45.3 µM | [12] 40.1 µM | [13] 65.2 µM

COc1cc(C(C)O)c[n+](CCc2c[nH]c3ccccc23)c1 (stereo not drawn)
inactive: [1] 89.9 µM | [2] > 100 µM | [3] 48.3 µM | [14] 66.5 µM | [5] > 100 µM | [6] > 100 µM | [7] > 100 µM | [8] 58.6 µM | [9] > 100 µM | [15] > 100 µM | [10] > 100 µM | [11] > 100 µM | [12] > 100 µM | [13] > 100 µM

Cc1c(C(=O)O)n(C)c(=O)n(C)c1=O
inactive: [1] > 100 µM | [2] > 100 µM | [3] > 100 µM | [14] > 100 µM | [4] > 100 µM | [6] > 100 µM | [7] > 100 µM | [8] > 100 µM | [9] > 100 µM | [16] > 100 µM | [15] > 100 µM | [11] > 100 µM | [12] > 100 µM | [17] > 100 µM | [13] > 100 µM

COC1CC(Br)(C#N)C1 (stereo not drawn)
inactive: [3] > 100 µM | [14] > 100 µM | [4] > 100 µM | [5] > 100 µM | [7] > 100 µM | [8] > 100 µM | [9] > 100 µM | [15] > 100 µM | [10] > 100 µM | [12] > 100 µM | [17] > 100 µM | [13] > 100 µM

Cn1c(=O)c(C(=O)NC(=O)OCc2ccccc2)cn(CCSCCOC(=O)NCCCCCCNC(=O)OCCSCCn2cc(C(=O)NC(=O)OCc3ccccc3)c(=O)n(C)c2=O)c1=O
inactive: [1] 17.8 µM | [2] > 100 µM | [3] > 100 µM | [4] > 100 µM | [5] > 100 µM | [6] > 100 µM | [7] > 100 µM | [9] > 100 µM | [16] > 100 µM | [15] > 100 µM | [11] 41.2 µM | [12] > 100 µM | [17] > 100 µM | [13] 74.6 µM

CC[N+](C)(C)c1ccc(C(=C2C=CC(=[N+](C)C)C=C2)c2ccc(N(C)C)cc2)cc1
inactive: [1] 4.76 µM | [2] 5.74 µM | [3] 4.97 µM | [14] 10.5 µM | [4] 16.9 µM | [5] 2.19 µM | [6] 4.39 µM | [7] 17.7 µM | [8] 4.93 µM | [9] 12.8 µM | [16] 19.7 µM | [15] 11 µM | [10] 10.6 µM | [12] 6.17 µM | [17] 52 µM | [13] 27.5 µM

CC(=O)SCCC1c2[nH]c3ccccc3c2CCN1O (stereo not drawn)
inactive: [1] 18.7 µM | [2] 82.8 µM | [3] > 100 µM | [14] > 100 µM | [4] > 100 µM | [5] 35.2 µM | [6] > 100 µM | [7] > 100 µM | [8] > 100 µM | [9] > 100 µM | [15] > 100 µM | [11] > 100 µM | [12] 85.1 µM | [17] 71.4 µM | [13] > 100 µM

NC1=NN(c2ccccc2)C(=O)C1C(=O)C(=O)NC1C2CC3CC(C2)CC1C3 (stereo not drawn)
inactive: [2] > 100 µM | [3] > 100 µM | [14] > 100 µM | [4] > 100 µM | [6] > 100 µM | [7] > 100 µM | [8] > 100 µM | [9] > 100 µM | [16] > 100 µM | [15] > 100 µM | [10] > 100 µM | [11] > 100 µM | [12] > 100 µM | [17] > 100 µM | [13] > 100 µM

CN(C)Cc1[nH]c2ccccc2c1C(=O)c1ccccc1
inactive: [1] 21.9 µM | [2] > 100 µM | [14] > 100 µM | [4] > 100 µM | [5] 66.2 µM | [7] > 100 µM | [8] > 100 µM | [9] > 100 µM | [16] > 100 µM | [15] > 100 µM | [10] 88.3 µM | [11] > 100 µM | [12] 99.1 µM | [17] > 100 µM | [13] 31.6 µM

C/C(=N\NC(=O)CC(=O)N(C(=O)c1ccc(Cl)cc1)c1ccc(C)cc1)c1ccccc1O
inactive: [1] 18.2 µM | [2] 21.4 µM | [3] 6.79 µM | [14] 14 µM | [4] 61.8 µM | [5] > 100 µM | [6] > 100 µM | [7] > 100 µM | [8] 48.1 µM | [9] 18.7 µM | [16] 77.6 µM | [15] 81.7 µM | [11] 59.4 µM | [17] > 100 µM | [13] 4.82 µM

O=S1(=O)CCCS(=O)(=O)C(c2ccccc2)=C1c1ccccc1
inactive: [1] 27.5 µM | [2] 47.3 µM | [3] > 100 µM | [14] 36.6 µM | [4] > 100 µM | [5] 41 µM | [6] 29.4 µM | [7] 50.5 µM | [8] 64 µM | [9] 91.6 µM | [16] 56.5 µM | [15] 26.9 µM | [10] 31.6 µM | [12] 18.5 µM | [17] > 100 µM | [13] > 100 µM

Cc1ccc(N2C(=O)C(Cl)=C(Cl)C2=O)cc1
inactive: [1] 22.5 µM | [2] > 100 µM | [3] 21.5 µM | [14] 16.9 µM | [4] 16.5 µM | [5] 18.8 µM | [6] 18.7 µM | [7] 20.7 µM | [8] 19.1 µM | [16] > 100 µM | [15] 19.2 µM | [10] 21.3 µM | [11] > 100 µM | [12] 34.4 µM | [17] 18 µM | [13] 31.7 µM

CC1(Br)C(=O)NC(=O)N([C@H]2C[C@H](O)[C@@H](CO)O2)C1N=[N+]=[N-] (stereo partly drawn)
inactive: [1] > 100 µM | [2] > 100 µM | [3] > 100 µM | [14] > 100 µM | [4] > 100 µM | [5] > 100 µM | [6] > 100 µM | [7] > 100 µM | [8] > 100 µM | [9] > 100 µM | [16] > 100 µM | [15] > 100 µM | [10] > 100 µM | [11] > 100 µM | [12] > 100 µM | [17] > 76.2 µM | [13] > 100 µM
